Measurements: patent US8853219B2, “Compounds and compositions for cognition-enhancement, methods of making, and methods of treating” (NeuroSolis, Inc., priority 2010, dated 2014)

What was measured:
rat M1 receptors = target: T1, rat M1 receptors (Rattus norvegicus, UniProt P08482); experiment: PI turnover (inositol phosphate production) in M1-CHO cells; assay type: cell-based; settings: M1 versus M3 cell lines
T1 construct: host or cells: Chinese Hamster Ovary cells (M1-CHO)
T1 sequence (P08482 1-460): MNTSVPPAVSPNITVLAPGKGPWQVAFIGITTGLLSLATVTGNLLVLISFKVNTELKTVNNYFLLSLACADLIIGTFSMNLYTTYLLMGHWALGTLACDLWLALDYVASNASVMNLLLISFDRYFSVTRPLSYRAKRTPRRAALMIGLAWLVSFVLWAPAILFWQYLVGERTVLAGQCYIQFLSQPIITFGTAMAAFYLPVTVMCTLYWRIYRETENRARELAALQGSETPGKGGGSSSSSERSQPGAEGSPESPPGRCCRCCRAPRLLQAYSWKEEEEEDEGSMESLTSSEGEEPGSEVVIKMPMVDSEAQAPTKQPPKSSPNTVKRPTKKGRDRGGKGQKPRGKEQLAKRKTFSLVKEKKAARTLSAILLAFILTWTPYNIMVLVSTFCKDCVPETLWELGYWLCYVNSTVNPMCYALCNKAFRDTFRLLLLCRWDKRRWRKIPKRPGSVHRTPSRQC
Procedure: The medium was changed to 70 μL/well of inositol-free DMEM containing 2 mM glutamine, 10% FBS and 10 μCi/ml of [3H]-inositol (PE:cat #NET114A250UC), incubated overnight as above, then 100 μL of a solution of the test compound in HBSS containing 10 mM LiCl and 20 mM HEPES, pH 7.4 was added, incubation was continued for 60 min under the above conditions, and the test was stopped by removing the test compound and replacing with 100 μL of 50 mM formic acid in water at 4° C.

[1] = Blood and brain concentrations (rats) after oral gavage; assay type: in vivo, rat; settings: for Brain Cmax (10 mg/kg po) 1 hr MCD-386 = 1.00: rat brain, relative to MCD-386; for Penetration into the brain: rats after oral dosing
Procedure: Long-Evans Hooded rats (Charles River: male, 250-350 g) were dosed with solutions of test compounds in PBS by oral gavage. At the desired time after dosing, the animals were anesthetized with isoflurane, and then euthanized by cervical dislocation. Blood was obtained by cardiac puncture, transferred to a 1.5 mL microcentrifuge tube containing 15U Heparin, and the plasma recovered after centrifugation. Brains were dissected, weighed, immediately chilled to 4° C., and homogenized using a PowerGen 125 homogenizer in five volumes of ice-cold 2% formic acid. Proteins were precipitated from plasma and brain homogenate with two and five volumes respectively of ice-cold 2% formic acid and clarified by centrifugation. The supernatant was ultra-filtered by centrifugation through a 3K MWCO spin column (Pall Life Sciences), following the manufacturer's instructions. The concentration of compound in the ultra-filtrate was subjected to reverse-phase liquid chromatography using a 150×2.1 mm Agilent C8 reverse-phase column on a Shimadzu Prominence LC, eluting the compounds with a gradient of 2% to 50% of acetonitrile+0.1% formic acid for compound MI-50,382, or an isocratic flow of 2% acetonitrile+0.1% formic acid for the rest of the compounds listed. The concentration of the compound in the column effluent was measured using an Applied Biosystems API-3200 triple quadrupole mass spectrometer equipped with an electrospray sample injection system. The counts of the characteristic parent and product ions of each test compound were converted to concentration units by comparison with a standard calibration curve.

[2] = test system: inositol phosphate signaling pathway; experiment: In vivo measurement of tissue inositol phosphate signaling pathway activation (hippocampus, salivary gland); settings: rat, Compound 3 1 mg/kg
Procedure: Experimental compounds or drug substances were administered using standard techniques to Long Evans Hooded rats weighing 225 to 350 grams, and which had been pretreated with a subcutaneous injection of lithium chloride at a suitable dose between 3 and 10 mmoles per kg. At suitable times the animals were briefly anesthetized using 5% isoflurane and euthanized by decapitation. The brains and submaxillary salivary glands were rapidly dissected out, and the hippocampuses were dissected from the brains. The dissected tissues were homogenized in a suitable volume of ice-cold phosphate-buffered saline containing 10 mM lithium chloride, pH7.4, using a tissue homogenizer, and used immediately or frozen in aliquots at −80 degC for future use. The concentration of inositol-1-phosphate was determined in the homogenates using the IPOne TR-FRET assay (CisBio cat no 621PAPEB), following the manufacturer's instruction

rats = experiment: Salivation after transdermal iontophoretic co-delivery of agonist and antagonist from one patch; assay type: in vivo, rat; settings: anesthetized rats, device with 1 mg Compound 3 plus 0.01 mg antagonist
Procedure: Experimental compounds and drug substances were delivered transdermally in rats using iontophoresis as follows. The fur was shaved from the backs of Long Evans Hooded rats weighing 225 to 325 grams, using electric clippers. Experimental compounds and drug substances were formulated at suitable concentrations an aqueous mixture of the following composition:
The polyvinyl alcohol/water was heated to 95 degC until it became clear, then the other constituents were added and mixed well. The mixture was introduced into suitable molds containing a disc-shaped cavity 2.2 cm diameter and 2.2 mm deep. Molds may be fabricated using two glass sheets separated by a silicone rubber sheet with suitable sized cavities and filling ports cut-outs. The molds were subject to 3 freeze-thaw cycles at −80 degC and 20 degC until a firm cryogel was obtained. The gels were separated from the molds and trimmed into a circular shape. The gel was placed in a silicone rubber casing with one face in contact with a circular silver foil anodic electrode (22 mm dia/250 microns thick), and the assembly was placed on the shaved skin of the rat such that the other face was in contact with the skin on one side of the back of the rat. The rubber casing formed a seal over and around the gel/electrode assembly. […] This was placed on the other side of the shaved back of the rat, the edges of the gel discs being about 20 mm apart at their nearest point. A DC voltage was applied across the two patches from a constant-current DC power supply and the voltage adjusted to obtain the desired current, such that the skin of the animal completed the electrical circuit.
The devices were placed on shaved backs of anesthetized rats and salivation was measured.
The animals were placed slightly head-down on an inclined, heated ramp. Rectal temperature was monitored using a thermocouple and the temperature of the heating pad was adjusted manually to maintain normal body temperature. Saliva was collected from the mouth by absorption onto pre-weighed slips of filter paper. The filter paper was changed periodically and the amount of saliva was measured by weighing the filter paper slips.

[3] = Immediate release capsules in healthy male volunteers: serum pharmacokinetics, metabolites, cholinergic side effects; assay type: in vivo, human
Procedure: A single 5 mg capsule or 5×0.2 mg capsules (1 mg total dose) were administered orally to healthy male volunteer human subjects with 125 ml of water. Six such subjects receiving the 5 mg dose, and a different 6 subjects received the 1 mg dose.
Subjects were monitored, among other things, for typical signs of muscarinic cholinergic action, such as increased salivation, lachrimation and diaphoresis. Venous blood samples were drawn at various intervals after dosing from each subject into standard tubes for bioanalytical and pharmacokinetic analysis. The blood was allowed to clot, and the serum separated, using common clinical laboratory techniques. Serum samples were stored at −20 deg C. until used for analysis.
MCD-386HCl, which exists in serum principally as the protonated form of MCD-386, was assayed in clinical serum samples as follows. 200 μL aliquots of serum samples were spiked with 50.0 μL of diluent for subject samples and QC samples and 50 μL of the appropriate intermediate standard solution for standards. Twenty five microliters (25.0 μL) of working internal standard stock solution and 40.0 μL of 10 N sodium hydroxide was then added and the samples were vortex mixed. Three milliliters (3.00 mL) of ethyl acetate was added followed by 5 minutes of vigorous vortexing and centrifugation. The top organic layer was transferred to a clean tube, evaporated to dryness, and the sample was reconstituted with 100 μL of diluent (0.1% formic acid). A 10 μL aliquot of this reconstituted sample was injected into Phenomenex Synergy 4μ POLAR-RP, 75×2.0 mm (P/N 00C-4336-B0) on a Waters Acuity HPLC LC system, and eluted using a gradient of from 12% to 90% acetonitrile containing 0.1% formic acid/0.1% formic acid in water. The eluant flow of the LC was injected by Turbo Ion Spray (positive ion) into a Sciex API 4000 (Applied Biosystems). The MS/MS transitions monitored were 181.1 m/z to 111.0 m/z for MCD-386HCl and 186.1 m/z to 111.1 m/z for the internal standard, D5-MCD-386HCl. The calibration curve was linear between 0.100 ng/mL and 50.0 ng/mL for MCD-386HCl. The lower limit of quantitation (LLOQ) was 0.100 ng MCD-386HCl per mL of serum. MCD-386HCl concentrations are expressed as free base.
The bioanalytical method for the extraction of metabolites from serum samples entailed adding 450 uL of a 90% acetonitrile+0.1% formic acid solution to 50 uL of the serum samples. The samples were vortexed and centrifuged at 16,000x g at 4° C. for 10 minutes. The supernatants were transferred to 3K molecular weight cut-off (MWCO) spin filters (Pall, Nanosep, #82031-346). Samples were filtered by centrifugation at 13,000×g at 4° C. for 20 minutes. The filtrates were transferred to a 96-well plate and sealed for LC/MS/MS analysis. The system used for this analysis was a Shimadzu Prominence HPLC system. […] The autosampler was maintained at 4° C. Injection volumes for all samples and standards were 40 uL. MRM methods for two possible metabolites were made. An API 3200 triple-quadrupole mass spectrometer with a Turbo V source (Applied Biosystems) was used, following commonly used procedures which would be readily set up by a person skilled in the art of LC-MS/MS. The counts of the characteristic parent and product ions of the free base metabolites were converted to concentration units by comparison with a standard calibration curve.
The bioanalytical results were analyzed using Win Nonlin software and common pharmacokinetic methods known to those skilled in the art.

Q: Which results are given for Cl.[2H]C([2H])([2H])C([2H])([2H])c1noc(C2CN=CNC2)n1 (stereo not drawn) [compound 2, 3-(1,1,2,2,2-d5-ethyl)-5-(1,4,5,6-tetrahydropyrimidin-5-yl)-1,2,4-oxadiazole hydrochloride]?
A: Functional selectivity for M1 subtype by PI turnover (rat M1 receptors): M1-subtype functionally selective muscarinic agonists; Brain Cmax (10 mg/kg po) 1 hr MCD-386 = 1.00 [1]: 0.61; Penetration into the brain [1]: penetrated into the brain

Q: With NC(=O)C(c1ccccc1)(c1ccccc1)[C@@H]1CCN(CCc2ccc3c(c2)CCO3)C1 [darifenacin] as the compound, how does the “Block of increase in salivary gland inositol phosphate caused by Compound 3” value ([2]; antagonist 0.1 mg/kg) read?
A: less effective

Q: And the “Reduction of salivation caused by transdermal iontophoretic delivery of Compound 3” value (from here on “Reduction of salivation caused”) (rats)?
A: reduced salivation, but were less effective

Q: With CCc1noc(C2CN=CNC2)n1 (stereo not drawn) [MCD-386HCl, 5-(3-ethyl-1,2,4-oxadiazol-5-yl)-1,4,5,6-tetrahydropyrimidine] as the compound, how does the “Observable cholinergic side effects” value ([3]; 1 mg total dose cohort) read?
A: none of the subjects in the 1 mg total dose cohort experienced any observable cholinergic side effects

Q: What about the Diaphoresis ([3]; 5 mg cohort) of the same compound?
A: Two of these latter subjects experienced mild, transient diaphoresis that resolved within a short period, and two subjects experienced moderate diaphoresis

Q: What about the Hypersalivation ([3]; 5 mg cohort) of the same compound?
A: One of the latter subjects also experienced mild hypersalivation

Q: What about the “Observable cholinergic side effects” value ([3]; 5 mg cohort) of the same compound?
A: two subjects experienced no observable side effects, and four subjects showed signs of muscarinic cholinergic activity

Q: And the “Main metabolite in serum” value ([3]; 5 mg dose cohort)?
A: identified in the serum samples of five out of six subjects

Q: With CC(C)[N+](C)(CCOC(=O)C1c2ccccc2Oc2ccccc21)C(C)C [propantheline] as the compound, how does the “Block of increase in hippocampal inositol phosphate caused by Compound 3” value ([2]; antagonist 0.03 mg/kg) read?
A: without blocking

Q: What about the “Block of increase in salivary gland inositol phosphate caused by Compound 3” value ([2]; antagonist 0.03 mg/kg) of the same compound?
A: can block

Q: What about the “Reduction of salivation caused” value (rats) of the same compound?
A: greatly reduced

Q: What does the source list for CCN(CC)CC#CCOC(=O)C(O)(c1ccccc1)C1CCCCC1 (stereo not drawn) [oxybutinin]?
A: Block of increase in salivary gland inositol phosphate caused by Compound 3 ([2]; antagonist 0.1 mg/kg): less effective; Reduction of salivation caused by transdermal iontophoretic delivery of Compound 3 (rats): reduced salivation, but were less effective

Q: For C[N+]1(C)CCC(OC(=O)C(O)(c2ccccc2)C2CCCC2)C1 (stereo not drawn) [glycopyrrolate], which “Block of increase in hippocampal inositol phosphate caused by Compound 3” value ([2]; antagonist 0.03 mg/kg) is on record?
A: without blocking

Q: What about the “Block of increase in salivary gland inositol phosphate caused by Compound 3” value ([2]; antagonist 0.03 mg/kg) of the same compound?
A: can block

Q: And the “Reduction of salivation caused” value (rats)?
A: greatly reduced

Q: For Cl.[2H]C([2H])(C)c1noc(C2CN=CNC2)n1 (stereo not drawn) [compound 6, 3-(1,1-d2-ethyl)-5-(1,4,5,6-tetrahydropyrimidin-5-yl)-1,2,4-oxadiazole hydrochloride], which “Functional selectivity for M1 subtype by PI turnover” value (rat M1 receptors) is on record?
A: M1-subtype functionally selective muscarinic agonists

Q: And the “Brain Cmax (10 mg/kg po) 1 hr MCD-386 = 1.00” value [1]?
A: 0.82

Q: And the “Penetration into the brain” value [1]?
A: penetrated into the brain
